Experimental findings from patent US20170107577A1, “Determining Cancer Aggressiveness, Prognosis and Responsiveness to Treatment” (THE COUNCIL OF THE QUEENSLAND INSTITUTE OF MEDICAL RESEARCH, priority 2014, published 2017) are described below.

Holding throughout (format): cell-based
The subject of assay [1] is breast cancer cell lines. The experiment in a line: Aurora kinase inhibitor sensitivity of breast cancer cell lines by Agro, TN and iBCR score (two published studies). The method, then: Two studies which treated breast cancer cell lines with Aurora kinase inhibitors were analyzed based on the Agro, TN and the iBCR score for these cell lines.
Assay [2] concerns MDA-MB-231 cells. As to the kind of experiment: Apoptosis assay by flow cytometry (Annexin V / 7-AAD). The note with it: MDA-MB-231, collected at 96 hours. From the text: FIG. 7: TTK associates with aggressive subtypes and is a therapeutic target. (A) Kaplan-Meier survival curves are shown for Grade 3 tumors, lymph node positive patients (LN^+) and LN^+ patients with grade 3 tumors. Log-rank Test and p-value were used for these survival curves. For patients with TNBC, and HER2, survival was statistically significant using the Gehan-Breslow-Wilcoxon test (p-values marked by asterisks) which gives more weight to deaths at early time points. […] Survival curves and statistical analyses were performed using GraphPad® Prism. (B) TNBC and non-TNBC cell lines were treated for 6 days with the specified concentrations of docetaxel (doc) alone, TTK inhibitor (TTKi) alone of the combinations. The survival of cells was measured using the MTS/MTA assay as described in Methods. *** p<0.001 comparing the combination to single agents and to non-TNBC cell lines from Two-Way Anova in GraphPad® Prism. (C) MDA-MB-231 cells were treated with docetaxel or TTKi alone or in combination and collected at 96 hours to perform apoptosis assays by flow cytometry. […]
Breast cancer cell lines were obtained from ATCC™ (VA, USA) and cultured as per ATCC™ instructions. […] Six days after siRNA knockdown or after drug treatments the survival of cells in comparison to control was determined using the CellTiter 96® Assay as per manufacturer instructions (Promega Corporation, WI, USA). […]
A general note: A flow cytometer gives signals particle by particle.

Assay [3] deals with breast cancer cell lines (TNBC and non-TNBC). As to the kind of experiment: Cell survival (CellTiter 96 MTS/MTA assay) of breast cancer cell lines after drug treatment. The settings on record: 6 days; for survival of cells, combination of TTKi with docetaxel: very low (sub-lethal) doses, TNBC cell lines which overexpress TTK vs cell lines which do not. The method, then:
FIG. 5: Therapeutic targets in the aggressiveness gene list. (A) The TNBC cell lines, MDA-MB-231, SUM159PT and Hs578T were treated with control siRNA (Scrambled, Sc CTRL) or siRNA targeting the specified genes and the survival of these cells was compared on day 6. Data shown is the average from the three cell lines where each cell line was treated in triplicate. * p<0.05, ** p<0.01 and *** <0.001 from One-Way ANOVA analysis performed using GraphPad® Prism. (B) A panel of breast cancer cell lines was used to prepare lysates for immunoblotting of TTK. Tubulin was used as the loading control. (C) Dose response curves for the treatment of breast cancer cell lines in the absence or presence of escalating doses of the TTK inhibitor (TTKi) AZ3146. The survival of cells was measured using the CellTitre® MTS/MTA assay carried out 6 days after treatment. Percentage survival (n=3 per dose) was calculated as the percentage of the signal from treated cells to that from control cells. […]
FIG. 7: TTK associates with aggressive subtypes and is a therapeutic target. […] The survival of cells was measured using the MTS/MTA assay as described in Methods. *** p<0.001 comparing the combination to single agents and to non-TNBC cell lines from Two-Way Anova in GraphPad® Prism. […]
Breast cancer cell lines were obtained from ATCC™ (VA, USA) and cultured as per ATCC™ instructions. […] Six days after siRNA knockdown or after drug treatments the survival of cells in comparison to control was determined using the CellTiter 96® Assay as per manufacturer instructions (Promega Corporation, WI, USA). For immunoblotting, standard protocols were used and membranes were probed with antibodies against TTK (anti-MPS1 mouse monoclonal antibody [N1] ab11108 (Abcam, Cambridge), and γ-tubulin (Sigma-Aldrich®) then developed using chemiluminescence reagent plus (Milipore, MA, USA). Flow cytometry to quantify apoptosis was performed using Annexin V-Alexa488 and 7-AAD (Life Technologies) as per manufacturer instruction using BD FACSCanto II™ flow cytometer (BD Biosciences, CA, USA).

For assay [4], the system named is cancer cell lines. The experiment in a line: Cancer Cell Line Encyclopedia (CCLE) drug sensitivity re-analysed by TN/Agro/iBCR score. The note with it: CCLE study; for sensitivity (IC50) of high TN score vs low TN score cell lines: dichotomy across median TN score. The method, then:
(§1) FIG. 35: Sensitivity of cancer cell lines to anticancer drugs according to the TN score in the Cancer Cell Line Encyclopedia (CCLE) study. The gene expression data of the cancer cell lines in the study were analyzed to calculate the TN score for each cell line and were assigned to low or high TN score by dichotomy across the median. The IC50 for each of the 24 drugs used in the CCLE study was compared between high and low TN score cell lines and the data shown are those with statistical differences based on unpaired two-tailed t-test performed using GraphPad® Prism.
as §1, with “FIG. 42: Sensitivity of” for “FIG. 35: Sensitivity of”, “to the iBCR score in” for “to the TN score in”, “or high iBCR score by” for “or high TN score by”, “and low iBCR score cell” for “and low TN score cell”, “GraphPad® Prism. As this analysis was also done for the TN score (FIG. 35), results from analysis of the Agro score are also shown in the top row.” for “GraphPad® Prism.”
(§2) Two large studies which treated large panels of cancer cell lines with large panels of anticancer drugs were investigated to determine whether cell lines with high Agro, TN or iBCR scores show different sensitivity to particular anticancer drugs in comparison to cancer cell lines with low Agro, TN or iBCR scores. Briefly, the datasets of gene expression profiling from Genentech (mRNA Cancer Cell Line Profiles GSE10843), Pfizer (Pfizer Molecular Profile Data for Cell Line GSE34211) and Broad Institute/Novartis (Cancer Cell Line Encyclopedia [CCLE] GSE3613) were obtained from GEO and imported into ArrayTools as described earlier. The Agro, TN and iBCR scores for all the cell lines profiled were calculated and cell lines were assigned as high or low for each of the scores based on dichotomy across the median in each dataset. For cell lines which were profiled in more than one dataset, the average scores were used. […] Statistical significance was determined from unpaired two-tailed t-test using GraphPad® Prism.
(§3) In the second approach, published studies which surveyed panels of molecular drugs against, cancer cell lines were analyzed. The Cancer Cell Line Encyclopedia (CCLE) study investigated the pharmacological profiles for 24 anticancer drugs across 479 cancer cell lines which were also profiled with gene expression arrays. We calculated the TN score for each cell line in this study and compared the sensitivity of these cell lines to the anticancer drugs according to the TN score. […] In a similar method, we also analyzed a second large study. Garnett et al., which tested 130 drugs against more than 600 cancer cell lines.

Assay [5] has as its system cancer cell lines. As to the kind of experiment: Garnett et al. drug screen re-analysed by TN/Agro/iBCR score. The note with it: Garnett et al. study, dichotomy across median iBCR score. The method, then: FIG. 24: Drug sensitivity of cancer cell lines according to the TN score. The large published study by Garnett et al. was investigated where the TN score was calculated for each cell line in the study as described in Methods. The cell lines were classified as high or low TN score according to the median TN score to compare the sensitivity of low TN score cell lines (white boxes) and high TN score cell lines (red boxes). Graphs were prepared using GraphPad® Prism showing sensitivity as −log 10[IC50] in boxes (with median marked by a line) and whiskers (marking the 1st and 3rd quartiles and outliers as dots according to Tukey method for plotting the whiskers and outliers). Unpaired two-tailed t test was used for statistical analysis.
FIG. 30: Drug sensitivity of cancer cell lines according to the iBCR score. The large published study by Garnett et al. was investigated where the iBCR score was calculated for each cell line from the Agro and TN scores. The cell lines were classified as high or low iBCR score according to the median iBCR score to compare the sensitivity of low iBCR score cell lines (white boxes) and […] (red boxes). Results according to low and high Agro score were also included.
as §2, §3

The mark [6] stands for this setting: high iBCR score breast cancer cell lines, read-out: IC50, high iBCR score cell lines.
Setting [7] is: low iBCR score breast cancer cell lines, read-out: IC50, low iBCR score cell lines.

Entries after “also recorded” stand apart in the source; their conditions may differ. Read-outs that look alike come from different tables or passages of the source.

`Cc1csc(-c2nnc(Nc3ccc(Oc4ncccc4-c4ccnc(N)n4)cc3)c3ccccc23)c1` [AMG 900]: the IC50 in assay [1] (setting [6]) was 0.3 nM; in assay [1] (setting [7]) it was 0.7 nM.
On to `CC(=O)O[C@@]12CO[C@@H]1C[C@H](O)[C@@]1(C)C(=O)[C@H](O)C3=C(C)[C@@H](OC(=O)[C@H](O)[C@@H](NC(=O)OC(C)(C)C)c4ccccc4)C[C@@](O)([C@@H](OC(=O)c4ccccc4)[C@H]21)C3(C)C` [docetaxel], for which the “apoptotic cell death, combination of TTKi with docetaxel” value in assay [2] is on record as “induced apoptotic cell death”. For the same compound, in assay [3], the “survival of cells, combination of TTKi with docetaxel” value is reported as “synergized”.
Consider AZ3146, for which the “apoptotic cell death, combination of TTKi with docetaxel” value in assay [2] is recorded as “induced apoptotic cell death”. Also, in assay [3] (panel of breast cancer cell lines, TNBC cell lines vs other cell lines), the “sensitivity (survival of cells) to the TTK inhibitor” value was “effective against TNBC cell lines; also recorded: TNBC cell lines were more sensitive”. For the same compound, the “survival of cells, combination of TTKi with docetaxel” value in assay [3] is “synergized with docetaxel”.
On to `Cc1cn(-c2cc(NC(=O)c3ccc(C)c(Nc4nccc(-c5cccnc5)n4)c3)cc(C(F)(F)F)c2)cn1` [Nilotinib], for which, in assay [4], the “sensitivity (IC50) of high TN score vs low TN score cell lines” value is “less sensitive”. In assay [4] (dichotomy across median iBCR score), the “sensitivity (IC50) of high iBCR score vs low iBCR score cell lines” value is reported as “less sensitive”. In assay [5], the “sensitivity of high iBCR score vs low iBCR score cell lines” value was “less sensitive”.
Turning to `Cc1cc(Nc2cc(N3CCN(C)CC3)nc(/C=C/c3ccccc3)n2)n[nH]1` [ENMD-2076], the IC50 in assay [1] (setting [6]) is 1400 nM; in assay [1] (setting [7]), 5900 nM.
Take `CS(=O)(=O)CCNCc1ccc(-c2ccc3ncnc(Nc4ccc(OCc5cccc(F)c5)c(Cl)c4)c3c2)o1` [Lapatinib]: the “sensitivity (IC50) of high TN score vs low TN score cell lines” value in assay [4] is listed as “more sensitive”.

As usually defined, the IC50 is the concentration needed to halve the response being measured.
